Results from patent EP1801111A1, “Novel polymorph forms of olmesartan medoxomil” (LEK Pharmaceuticals d.d., priority 2005, dated 2007).

Experiments:
[1] = 1 n hcl
[2] = Hygroscopicity: mass change after exposing to air moisture; type: physicochemical; settings: for increase of the mass of the sample: after exposing to air moisture for 6 days

solubility in 1 N HCI [1]	increase of the mass of the sample ([2]; hemihydrate)	hygroscopicity (in words) ([2]; compared with the prior art substance)	increase of the mass of the sample [2]	Structure (SMILES)
around 3 mg/ml	did not increase	not hydroscopic	–	CCCc1nc(C(C)(C)O)c(C(=O)OCc2oc(=O)oc2C)n1Cc1ccc(-c2ccccc2-c2nnn[nH]2)cc1 [olmesartan medoxomil hemihydrate]
approximately 2 mg	–	–	0,61%	CCCc1nc(C(C)(C)O)c(C(=O)OCc2oc(=O)oc2C)n1Cc1ccc(-c2ccccc2-c2nnn[nH]2)cc1 [prior art substance, olmesartan medoxomil]
up to 7 mg/ml	–	–	–	CCCc1nc(C(C)(C)O)c(C(=O)OCc2oc(=O)oc2C)n1Cc1ccc(-c2ccccc2-c2nnn[nH]2)cc1 [partially crystalline or amorphous, olmesartan medoxomil]
